In ChEMBL document CHEMBL1201862, “PubChem BioAssay data set” (2004):
Calls of active or inactive are those of the source.

Assays:
[1] = molecular target: Beta-2 adrenergic receptor (Homo sapiens, UniProt P07550); assay: beta2AR agonists driving receptor internalization, dose response, cell-based, FAP fluorogen, flow cytometry, cherry pick 1 (AID 588763); format: functional
HEK293 [2] = assay: cells; format: functional, cell-based; details: Homo sapiens
[3] = molecular target: Nuclear receptor subfamily 0 group B member 1 (Homo sapiens, UniProt P51843); assay: Luminescence-based cell-based high throughput dose response assay for inhibitors of the orphan nuclear receptor subfamily 0, group B, member 1 (DAX1; NR0B1). [Related pubchem assays (depositor defined):AID504766, AID504790]; format: functional
Chain of Nuclear receptor subfamily 0 group B member 1 (P51843 whole entry, the tested form may be a part): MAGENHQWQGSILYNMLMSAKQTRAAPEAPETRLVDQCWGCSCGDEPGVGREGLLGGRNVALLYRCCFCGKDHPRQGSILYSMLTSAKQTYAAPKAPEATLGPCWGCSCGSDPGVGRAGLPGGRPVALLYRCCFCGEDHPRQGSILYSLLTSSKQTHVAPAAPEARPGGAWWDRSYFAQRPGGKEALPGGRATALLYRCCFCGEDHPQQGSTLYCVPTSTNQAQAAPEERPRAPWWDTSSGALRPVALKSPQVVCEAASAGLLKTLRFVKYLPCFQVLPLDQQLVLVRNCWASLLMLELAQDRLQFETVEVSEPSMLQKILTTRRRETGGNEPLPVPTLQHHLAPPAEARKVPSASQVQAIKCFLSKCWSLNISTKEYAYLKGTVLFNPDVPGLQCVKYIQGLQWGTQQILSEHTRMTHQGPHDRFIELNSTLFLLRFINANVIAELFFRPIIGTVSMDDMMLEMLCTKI

[4] = inhibitors of clade B AD8 Env fusion, dose response, cell-based, cherry-pick (AID 652062); format: functional;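 also: luciferase signal from cell-cell fusion driven by HIV-1 clade B AD8 Env; potency is for inhibitors of fusion seen as a drop in luminescence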
[5] = ZM109 Env clade C HIV-1 fusion inhibitors, dose response, HeLa effector, CEM target cells, luciferase, cherry-pick (AID 652058); format: functional, cell-based
[6] = off-target signal loss in HeLa-CEM21 co-culture – HeLa F-luc CTL cells, cherry-picked, counter-screen for HIV-1 Env fusion inhibitor project, dose response (AID 652040); format: functional, cell-based;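 also: potency for signal decrease marking cytotoxic or nonspecific inhibition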
[7] = molecular target: Type-1 angiotensin II receptor (Homo sapiens, UniProt P30556); assay: AT1 receptor antagonists, dose response, selectivity assay for APJ receptor antagonist project, cell-based, uHTS hits (AID 463214); format: functional;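 also: antagonist potency against angiotensin II stimulated AT1 response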
Chain of Type-1 angiotensin II receptor (P30556 whole entry): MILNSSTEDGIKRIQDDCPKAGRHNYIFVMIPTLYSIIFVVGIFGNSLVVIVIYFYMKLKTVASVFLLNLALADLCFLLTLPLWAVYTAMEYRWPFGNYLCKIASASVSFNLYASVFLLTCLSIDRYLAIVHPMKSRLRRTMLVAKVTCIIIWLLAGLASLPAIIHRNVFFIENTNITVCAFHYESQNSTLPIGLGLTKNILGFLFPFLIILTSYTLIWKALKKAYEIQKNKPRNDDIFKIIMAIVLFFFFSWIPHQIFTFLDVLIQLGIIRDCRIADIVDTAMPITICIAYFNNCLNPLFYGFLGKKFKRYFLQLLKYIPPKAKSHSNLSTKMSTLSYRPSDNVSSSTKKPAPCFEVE

Beta-galactosidase = Beta-galactosidase (Escherichia coli, UniProt Q8VNN2); assay: PubChem AID 485352; format: functional
Chain of Beta-galactosidase (Q8VNN2 whole entry, the tested form may be a part): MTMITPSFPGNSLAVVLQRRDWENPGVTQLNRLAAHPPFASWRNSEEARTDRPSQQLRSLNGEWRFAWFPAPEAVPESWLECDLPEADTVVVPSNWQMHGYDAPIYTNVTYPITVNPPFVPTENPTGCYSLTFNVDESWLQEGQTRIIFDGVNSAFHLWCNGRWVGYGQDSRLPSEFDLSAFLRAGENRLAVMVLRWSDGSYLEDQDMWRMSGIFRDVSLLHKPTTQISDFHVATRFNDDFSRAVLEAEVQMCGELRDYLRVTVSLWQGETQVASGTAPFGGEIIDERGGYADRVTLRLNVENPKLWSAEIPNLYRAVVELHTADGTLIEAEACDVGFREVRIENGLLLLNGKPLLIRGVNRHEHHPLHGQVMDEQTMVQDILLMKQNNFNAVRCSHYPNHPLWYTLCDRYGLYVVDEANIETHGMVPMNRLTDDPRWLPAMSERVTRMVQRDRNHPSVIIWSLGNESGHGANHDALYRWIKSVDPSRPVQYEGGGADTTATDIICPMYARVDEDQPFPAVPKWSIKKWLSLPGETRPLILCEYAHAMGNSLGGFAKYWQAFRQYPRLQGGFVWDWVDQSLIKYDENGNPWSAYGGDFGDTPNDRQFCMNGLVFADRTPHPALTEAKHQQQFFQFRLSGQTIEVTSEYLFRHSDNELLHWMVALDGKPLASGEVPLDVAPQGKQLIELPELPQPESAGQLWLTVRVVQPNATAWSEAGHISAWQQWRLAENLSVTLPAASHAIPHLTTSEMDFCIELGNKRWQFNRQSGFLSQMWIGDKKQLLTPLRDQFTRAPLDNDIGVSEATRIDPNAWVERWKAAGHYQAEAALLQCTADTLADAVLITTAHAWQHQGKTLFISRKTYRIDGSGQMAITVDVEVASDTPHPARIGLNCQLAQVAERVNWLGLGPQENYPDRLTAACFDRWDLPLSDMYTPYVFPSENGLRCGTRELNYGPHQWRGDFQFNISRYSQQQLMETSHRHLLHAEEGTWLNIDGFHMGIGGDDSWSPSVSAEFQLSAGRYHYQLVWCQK

[8] = inhibitors of HIV Env-driven cell fusion, dose response, cherry-pick (AID 652057); format: functional, cell-based
Jurkat = assay: SAR Analysis of small molecule inhibitors of T-cell specific antigen receptor-induced NF-kB activation in a Jurkat cell line using a luminescence assay - Set 2. [Related pubchem assays (depositor defined):AID435003, AID435012, AID465]; format: functional, cell-based; details: Homo sapiens
HEK293 [9] = assay: SAR Analysis of small molecule inhibitors of T-cell specific antigen receptor-induced NF-kB activation in a HEK-293T cell line using a luminescence assay - Set 2. [Related pubchem assays (depositor defined):AID435003, AID435012, AID489026]; format: functional, cell-based; details: Homo sapiens
HEK293 [10] = assay: cytotoxicity in HEK293T NF-kB-Luc cells, SAR follow-up, cytotoxicity control for NF-kB activator project, cell-based, resazurin fluorescence (AID 493251); format: functional; details: Homo sapiens
[11] = molecular target: T1, Microphthalmia-associated transcription factor (Homo sapiens, UniProt O75030); assay: TRPM1 promoter luciferase signal decrease, dose response, MITF inhibitor project, cell-based, SK-MEL-5, cherry-picked, set 3 (AID 493073); format: functional
T1 sequence (O75030 whole entry): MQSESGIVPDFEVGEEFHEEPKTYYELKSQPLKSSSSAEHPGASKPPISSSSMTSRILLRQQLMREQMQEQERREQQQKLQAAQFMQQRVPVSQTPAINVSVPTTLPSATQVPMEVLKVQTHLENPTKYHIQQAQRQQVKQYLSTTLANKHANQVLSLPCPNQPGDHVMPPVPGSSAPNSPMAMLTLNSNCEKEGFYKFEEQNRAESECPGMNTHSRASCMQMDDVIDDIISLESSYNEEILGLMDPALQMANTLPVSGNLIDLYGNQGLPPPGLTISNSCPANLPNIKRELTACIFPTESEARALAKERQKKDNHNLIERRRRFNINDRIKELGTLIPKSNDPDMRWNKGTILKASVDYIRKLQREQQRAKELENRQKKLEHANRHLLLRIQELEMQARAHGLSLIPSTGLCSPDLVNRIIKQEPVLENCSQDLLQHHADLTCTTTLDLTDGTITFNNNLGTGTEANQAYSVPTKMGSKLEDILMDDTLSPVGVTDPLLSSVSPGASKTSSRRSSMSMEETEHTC

cells = format: functional
[12] = Vero E6 cell cytotoxicity, dose response, cytotoxicity control for non-replicating M. tuberculosis project, secondary assay (AID 492998); format: functional, VeroE6; details: Vero C1008
[13] = THP-1 cell cytotoxicity, dose response, cytotoxicity control for non-replicating M. tuberculosis project (AID 489025); format: functional
[14] = molecular target: Glycogen synthase kinase-3 beta (Homo sapiens, UniProt P49841); assay: Inhibition of Human GSK-3 beta Activity Measured in Biochemical System Using Microfluidics - 2063-05_Inhibitor_Dose_DryPowder_Activity. [Related pubchem assays (depositor defined):AID2709]
Chain of Glycogen synthase kinase-3 beta (P49841 whole entry): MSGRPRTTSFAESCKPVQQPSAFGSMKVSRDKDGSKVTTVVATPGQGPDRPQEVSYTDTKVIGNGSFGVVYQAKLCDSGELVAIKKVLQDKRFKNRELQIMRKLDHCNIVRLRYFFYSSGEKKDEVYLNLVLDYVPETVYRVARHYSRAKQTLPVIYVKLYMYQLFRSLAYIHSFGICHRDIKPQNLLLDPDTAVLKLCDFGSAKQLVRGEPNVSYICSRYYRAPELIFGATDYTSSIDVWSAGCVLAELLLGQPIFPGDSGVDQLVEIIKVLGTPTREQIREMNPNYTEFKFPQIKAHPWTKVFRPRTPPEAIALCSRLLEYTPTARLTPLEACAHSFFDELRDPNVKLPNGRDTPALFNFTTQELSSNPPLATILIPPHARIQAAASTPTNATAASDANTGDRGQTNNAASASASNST

[15] = HepG2 cell cytotoxicity, dose response, cytotoxicity control for non-replicating M. tuberculosis project (AID 489018); format: functional; details: Mycobacterium tuberculosis
[16] = molecular target: Glycogen synthase kinase-3 alpha (Homo sapiens, UniProt P49840); assay: Inhibition of Human GSK-3 alpha Activity Measured in Biochemical System Using Microfluidics - 2063-06_Inhibitor_Dose_DryPowder_Activity. [Related pubchem assays (depositor defined):AID2709]
Chain of Glycogen synthase kinase-3 alpha (P49840 whole entry): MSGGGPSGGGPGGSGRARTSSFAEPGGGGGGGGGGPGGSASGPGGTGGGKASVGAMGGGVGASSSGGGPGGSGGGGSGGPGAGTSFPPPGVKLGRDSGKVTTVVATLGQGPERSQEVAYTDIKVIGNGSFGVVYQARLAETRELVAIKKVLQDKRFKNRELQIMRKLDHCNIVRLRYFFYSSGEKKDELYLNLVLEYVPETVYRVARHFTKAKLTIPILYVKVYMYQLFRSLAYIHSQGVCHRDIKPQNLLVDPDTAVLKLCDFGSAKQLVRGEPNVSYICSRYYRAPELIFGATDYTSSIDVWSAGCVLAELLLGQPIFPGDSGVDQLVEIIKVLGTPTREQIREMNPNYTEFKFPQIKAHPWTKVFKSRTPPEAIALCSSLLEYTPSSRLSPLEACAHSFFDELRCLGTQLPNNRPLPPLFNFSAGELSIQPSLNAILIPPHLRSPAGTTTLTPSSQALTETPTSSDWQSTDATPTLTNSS

A-375 [17] = assay: MITF: Counter assay: A375 proliferation Measured in Cell-Based System Using Plate Reader - 2084-03_Inhibitor_Dose_DryPowder_Activity. [Related pubchem assays (depositor defined):AID488944]; format: functional; details: Homo sapiens
[18] = molecular target: T2, Replicative DNA helicase DnaB (Mycobacterium tuberculosis, UniProt P9WMR3); assay: DnaB intein splicing inhibitors, dose response, biochemical, cell-free fluorescence (AID 449749); format: functional
T2 sequence (P9WMR3 whole entry): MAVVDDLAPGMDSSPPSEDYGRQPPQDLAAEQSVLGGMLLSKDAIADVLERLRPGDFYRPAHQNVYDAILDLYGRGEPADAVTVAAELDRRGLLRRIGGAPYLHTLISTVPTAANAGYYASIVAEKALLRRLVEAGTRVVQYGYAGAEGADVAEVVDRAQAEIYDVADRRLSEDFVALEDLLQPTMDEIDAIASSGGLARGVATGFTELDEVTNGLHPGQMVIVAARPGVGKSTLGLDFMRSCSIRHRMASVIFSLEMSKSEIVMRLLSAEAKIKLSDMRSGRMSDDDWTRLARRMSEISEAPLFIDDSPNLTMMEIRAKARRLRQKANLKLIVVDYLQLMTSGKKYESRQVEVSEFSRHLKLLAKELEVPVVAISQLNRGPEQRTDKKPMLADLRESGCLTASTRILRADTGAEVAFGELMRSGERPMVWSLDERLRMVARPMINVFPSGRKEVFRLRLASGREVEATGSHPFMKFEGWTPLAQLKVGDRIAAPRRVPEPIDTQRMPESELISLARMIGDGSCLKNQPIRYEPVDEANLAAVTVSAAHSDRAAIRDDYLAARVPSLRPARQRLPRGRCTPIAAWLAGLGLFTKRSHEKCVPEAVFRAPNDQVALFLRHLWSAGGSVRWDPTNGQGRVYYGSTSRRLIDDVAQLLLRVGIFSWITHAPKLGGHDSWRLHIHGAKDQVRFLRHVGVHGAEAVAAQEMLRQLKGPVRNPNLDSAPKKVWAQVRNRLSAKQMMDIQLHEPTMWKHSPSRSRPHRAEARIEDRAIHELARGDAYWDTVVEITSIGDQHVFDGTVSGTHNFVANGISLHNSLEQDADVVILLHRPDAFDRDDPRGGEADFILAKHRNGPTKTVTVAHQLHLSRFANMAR

[19] = cytotoxicity toward DRD oncogenic fibroblasts, dose response, cell-based, non-viral oncogenic, luminescence (AID 1934); format: functional; details: Homo sapiens
BJ [20] = assay: cells; format: functional, cell-based; details: Homo sapiens
A-375 [21] = assay: A375 melanoma cell viability reduction, dose response, counter-screen for MITF modulator project, cherry-pick samples, set 2 (AID 540335); format: functional, cell-based; details: Homo sapiens
BJ [22] = assay: cytotoxicity toward BJ-TERT-LT-ST fibroblasts, dose response, cell-based, RAS-independent, luminescence (AID 1935); format: functional; details: Homo sapiens;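 also: BJ fibroblasts immortalized with TERT plus LT and ST oncogenes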
BJ [23] = assay: cytotoxicity toward BJ-TERT fibroblasts, dose response, cell-based, RAS-independent, luminescence (AID 1933); format: functional; details: Homo sapiens
Protein RecA = molecular target: T3, Protein RecA (Mycobacterium tuberculosis, UniProt P9WHJ3); assay: Fluorescence Cell-Free Homogeneous Dose Retest to Identify Inhibitors of RecA-Intein Splicing Activity. [Related pubchem assays (depositor defined):AID2097, AID2223, AID489010, AID492950]; format: functional
T3 sequence (P9WHJ3 whole entry): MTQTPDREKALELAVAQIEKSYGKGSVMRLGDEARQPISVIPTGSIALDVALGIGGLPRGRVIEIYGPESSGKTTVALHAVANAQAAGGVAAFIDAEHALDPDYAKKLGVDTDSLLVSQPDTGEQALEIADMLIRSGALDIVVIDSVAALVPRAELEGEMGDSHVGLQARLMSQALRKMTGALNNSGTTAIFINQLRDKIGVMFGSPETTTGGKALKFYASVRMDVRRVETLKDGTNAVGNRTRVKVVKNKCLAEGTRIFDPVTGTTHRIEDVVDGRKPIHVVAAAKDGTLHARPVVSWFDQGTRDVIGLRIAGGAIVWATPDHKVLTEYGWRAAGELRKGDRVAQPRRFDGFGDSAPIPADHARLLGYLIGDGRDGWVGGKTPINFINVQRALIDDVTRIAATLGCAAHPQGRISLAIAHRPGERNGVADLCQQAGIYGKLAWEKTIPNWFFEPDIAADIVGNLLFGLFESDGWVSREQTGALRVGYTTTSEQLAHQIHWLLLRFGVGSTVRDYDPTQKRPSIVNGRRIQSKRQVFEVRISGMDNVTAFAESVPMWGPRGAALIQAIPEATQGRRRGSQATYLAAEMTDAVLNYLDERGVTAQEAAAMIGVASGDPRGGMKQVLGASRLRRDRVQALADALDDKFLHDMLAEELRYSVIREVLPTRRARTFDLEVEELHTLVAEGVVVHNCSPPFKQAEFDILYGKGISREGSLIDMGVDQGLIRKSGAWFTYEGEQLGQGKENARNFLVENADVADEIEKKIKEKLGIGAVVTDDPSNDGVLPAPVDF

Chain of Beta-2 adrenergic receptor (P07550 whole entry): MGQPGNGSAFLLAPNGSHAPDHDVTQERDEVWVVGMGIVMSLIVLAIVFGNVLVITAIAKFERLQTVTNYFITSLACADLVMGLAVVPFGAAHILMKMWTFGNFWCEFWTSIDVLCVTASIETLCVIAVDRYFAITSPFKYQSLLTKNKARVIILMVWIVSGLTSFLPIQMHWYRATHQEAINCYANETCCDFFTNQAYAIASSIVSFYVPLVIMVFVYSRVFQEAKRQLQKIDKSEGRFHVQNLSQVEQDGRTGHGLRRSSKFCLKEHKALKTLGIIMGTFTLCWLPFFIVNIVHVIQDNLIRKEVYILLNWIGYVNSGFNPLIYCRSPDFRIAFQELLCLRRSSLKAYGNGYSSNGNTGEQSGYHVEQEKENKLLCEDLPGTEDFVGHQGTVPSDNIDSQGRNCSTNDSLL

CN(CCOc1ccc(-c2ccn(S(=O)(=O)c3cccc4ccccc34)n2)cc1)c1ccccn1
EC50 [1]: 2.53 µM (active)

c1ccc(N2CCN(c3ccccc3)C2c2cccs2)cc1
IC50 (HEK293 [2]): > 67.5 µM (inactive)
IC50 [3]: > 67.5 µM (inactive)

O=C(CNc1ccc(F)cc1)c1ccccc1
AC50 [4]: 4.61 µM (active)
AC50 [5]: 1.17 µM (active)
AC50 [6]: 1.57 µM (active)
IC50 [7]: 7.06 µM (active)
EC50 (Beta-galactosidase): > 40 µM (inactive)
AC50 [8]: 1.54 µM (active)

NS(=O)(=O)c1ccc(NC(=O)c2ccc([N+](=O)[O-])o2)cc1
IC50 (Jurkat): 17.4 µM (active)
IC50 (HEK293 [9]): 20.5 µM (inactive)
IC50 (HEK293 [10]): 71.3 µM (inactive)

O=C1Nc2cc(C(=O)NCCN3CCCCCC3)ccc2S/C1=C\c1ccccc1
AC50 [11]: 9.78 µM (active)
IC50 (cells): 37.8 µM (active)
CC50 [12]: 12.5 µM (active)
CC50 [13]: 6.89 µM (active)
AC50 [14]: 2.29 µM (active)
CC50 [15]: 12.1 µM (active)
AC50 [16]: 63.7 µM (active)

Cc1c(C#N)c(NC(=O)CCl)n(Cc2ccc(F)cc2)c1C
AC50 (A-375 [17]): > 35 µM (active)
AC50 [18]: 15.2 µM (active)
EC50 [19]: 12.1 µM (active)
AC50 [11]: 7.16 µM (active)
EC50 (BJ [20]): > 150 µM (inconclusive)
AC50 (A-375 [21]): > 35 µM (active)
EC50 (BJ [22]): 16.7 µM (active)
EC50 (BJ [23]): 1.88 µM (inconclusive)
EC50 (Protein RecA): 4.23 µM (active)
